In the NIST ThermoML archive (doi:10.1016/j.jct.2015.05.004):
Numbers after ± are expanded uncertainties.

Assay: xn = mol fraction of the nth substance listed
Conditions: 100 kPa, Liquid; for speed of sound: Frequency=3 MHz, Sing-around technique in a fixed-path interferometer; for mass density: Vibrating tube method

Q: Which speed of sound (293.15 K, x1 = 0.058) does the source give for CCCCn1cc[n+](C)c1.N#C[S-] [1-butyl-3-methylimidazolium thiocyanate] + CC(=O)O here?
A: 1270.5 ± 1.7 m/s

Q: What about the speed of sound (293.15 K, x1 = 0.1206) of the same compound?
A: 1369.6 ± 1.7 m/s

Q: What about the speed of sound (293.15 K, x1 = 0.1878) of the same compound?
A: 1448.3 ± 1.7 m/s

Q: What about the speed of sound (293.15 K, x1 = 0.2632) of the same compound?
A: 1520 ± 1.7 m/s

Q: What about the speed of sound (293.15 K, x1 = 0.3498) of the same compound?
A: 1576.8 ± 1.6 m/s

Q: What about the speed of sound (293.15 K, x1 = 0.4503) of the same compound?
A: 1626.5 ± 1.6 m/s

Q: What about the speed of sound (293.15 K, x1 = 0.5559) of the same compound?
A: 1667 ± 1.6 m/s

Q: What about the speed of sound (293.15 K, x1 = 0.6831) of the same compound?
A: 1707.6 ± 1.7 m/s

Q: And the speed of sound (293.15 K, x1 = 0.8282)?
A: 1744.3 ± 1.7 m/s

Q: What about the speed of sound (293.15 K, x1 = 0.9042) of the same compound?
A: 1760.7 ± 1.7 m/s

Q: And the speed of sound (293.15 K, x1 = 1)?
A: 1778.8 ± 1.7 m/s

Q: And the mass density (293.15 K, x1 = 0.058)?
A: 1064.97 ± 0.29 kg/m3

Q: What about the mass density (293.15 K, x1 = 0.1206) of the same compound?
A: 1070.89 ± 0.29 kg/m3

Q: What about the mass density (293.15 K, x1 = 0.1878) of the same compound?
A: 1072.93 ± 0.29 kg/m3

Q: And the mass density (293.15 K, x1 = 0.2632)?
A: 1073.93 ± 0.29 kg/m3

Q: What about the mass density (293.15 K, x1 = 0.3498) of the same compound?
A: 1073.95 ± 0.29 kg/m3

Q: And the mass density (293.15 K, x1 = 0.4503)?
A: 1074.04 ± 0.29 kg/m3

Q: What about the mass density (293.15 K, x1 = 0.5559) of the same compound?
A: 1073.89 ± 0.29 kg/m3

Q: And the mass density (293.15 K, x1 = 0.6831)?
A: 1073.66 ± 0.29 kg/m3

Q: What about the mass density (293.15 K, x1 = 0.8282) of the same compound?
A: 1073.35 ± 0.29 kg/m3

Q: And the mass density (293.15 K, x1 = 0.9042)?
A: 1073.19 ± 0.29 kg/m3

Q: And the mass density (293.15 K, x1 = 1)?
A: 1072.74 ± 0.29 kg/m3

Q: What about the speed of sound (298.15 K, x1 = 0.058) of the same compound?
A: 1252.4 ± 1.7 m/s

Q: What about the speed of sound (298.15 K, x1 = 0.1206) of the same compound?
A: 1353.9 ± 1.7 m/s

Q: And the speed of sound (298.15 K, x1 = 0.1878)?
A: 1433.8 ± 1.7 m/s

Q: What about the speed of sound (298.15 K, x1 = 0.2632) of the same compound?
A: 1506.3 ± 1.7 m/s

Q: And the speed of sound (298.15 K, x1 = 0.3498)?
A: 1563.6 ± 1.6 m/s

Q: And the speed of sound (298.15 K, x1 = 0.4503)?
A: 1613.6 ± 1.6 m/s

Q: And the speed of sound (298.15 K, x1 = 0.5559)?
A: 1658.3 ± 1.6 m/s

Q: What about the speed of sound (298.15 K, x1 = 0.6831) of the same compound?
A: 1695.4 ± 1.7 m/s

Q: And the speed of sound (298.15 K, x1 = 0.8282)?
A: 1732.4 ± 1.7 m/s

Q: What about the speed of sound (298.15 K, x1 = 0.9042) of the same compound?
A: 1749 ± 1.7 m/s

Q: What about the speed of sound (298.15 K, x1 = 1) of the same compound?
A: 1767.2 ± 1.7 m/s

Q: What about the mass density (298.15 K, x1 = 0.058) of the same compound?
A: 1060.08 ± 0.29 kg/m3

Q: And the mass density (298.15 K, x1 = 0.1206)?
A: 1066.45 ± 0.29 kg/m3

Q: What about the mass density (298.15 K, x1 = 0.1878) of the same compound?
A: 1069.2 ± 0.29 kg/m3

Q: What about the mass density (298.15 K, x1 = 0.2632) of the same compound?
A: 1070.07 ± 0.29 kg/m3

Q: And the mass density (298.15 K, x1 = 0.3498)?
A: 1070.59 ± 0.29 kg/m3

Q: What about the mass density (298.15 K, x1 = 0.4503) of the same compound?
A: 1070.98 ± 0.29 kg/m3

Q: And the mass density (298.15 K, x1 = 0.5559)?
A: 1070.99 ± 0.29 kg/m3

Q: What about the mass density (298.15 K, x1 = 0.6831) of the same compound?
A: 1071.08 ± 0.29 kg/m3

Q: And the mass density (298.15 K, x1 = 0.8282)?
A: 1070.87 ± 0.29 kg/m3

Q: What about the mass density (298.15 K, x1 = 0.9042) of the same compound?
A: 1070.77 ± 0.29 kg/m3

Q: What about the mass density (298.15 K, x1 = 1) of the same compound?
A: 1070.34 ± 0.29 kg/m3

Q: What about the speed of sound (303.15 K, x1 = 0.058) of the same compound?
A: 1235.9 ± 1.7 m/s

Q: What about the speed of sound (303.15 K, x1 = 0.1206) of the same compound?
A: 1338 ± 1.7 m/s

Q: And the speed of sound (303.15 K, x1 = 0.1878)?
A: 1419 ± 1.7 m/s

Q: And the speed of sound (303.15 K, x1 = 0.2632)?
A: 1492.2 ± 1.7 m/s

Q: And the speed of sound (303.15 K, x1 = 0.3498)?
A: 1550.1 ± 1.6 m/s

Q: And the speed of sound (303.15 K, x1 = 0.4503)?
A: 1600.6 ± 1.6 m/s

Q: What about the speed of sound (303.15 K, x1 = 0.5559) of the same compound?
A: 1641.9 ± 1.6 m/s

Q: What about the speed of sound (303.15 K, x1 = 0.6831) of the same compound?
A: 1683.1 ± 1.7 m/s

Q: And the speed of sound (303.15 K, x1 = 0.8282)?
A: 1720.3 ± 1.7 m/s

Q: And the speed of sound (303.15 K, x1 = 0.9042)?
A: 1737 ± 1.7 m/s

Q: And the speed of sound (303.15 K, x1 = 1)?
A: 1755.4 ± 1.7 m/s

Q: And the mass density (303.15 K, x1 = 0.058)?
A: 1055.2 ± 0.29 kg/m3

Q: What about the mass density (303.15 K, x1 = 0.1206) of the same compound?
A: 1062 ± 0.28 kg/m3

Q: What about the mass density (303.15 K, x1 = 0.1878) of the same compound?
A: 1064.96 ± 0.28 kg/m3

Q: And the mass density (303.15 K, x1 = 0.2632)?
A: 1066.21 ± 0.28 kg/m3

Q: And the mass density (303.15 K, x1 = 0.3498)?
A: 1066.92 ± 0.28 kg/m3

Q: What about the mass density (303.15 K, x1 = 0.4503) of the same compound?
A: 1067.53 ± 0.28 kg/m3

Q: And the mass density (303.15 K, x1 = 0.5559)?
A: 1067.68 ± 0.28 kg/m3

Q: And the mass density (303.15 K, x1 = 0.6831)?
A: 1067.9 ± 0.28 kg/m3

Q: And the mass density (303.15 K, x1 = 0.8282)?
A: 1067.81 ± 0.28 kg/m3

Q: And the mass density (303.15 K, x1 = 0.9042)?
A: 1067.74 ± 0.28 kg/m3

Q: And the mass density (303.15 K, x1 = 1)?
A: 1067.37 ± 0.28 kg/m3

Q: And the speed of sound (308.15 K, x1 = 0.058)?
A: 1218.7 ± 1.7 m/s

Q: And the speed of sound (308.15 K, x1 = 0.1206)?
A: 1322.1 ± 1.7 m/s

Q: What about the speed of sound (308.15 K, x1 = 0.1878) of the same compound?
A: 1404.2 ± 1.7 m/s

Q: What about the speed of sound (308.15 K, x1 = 0.2632) of the same compound?
A: 1478.1 ± 1.6 m/s

Q: And the speed of sound (308.15 K, x1 = 0.3498)?
A: 1536.6 ± 1.6 m/s

Q: And the speed of sound (308.15 K, x1 = 0.4503)?
A: 1587.6 ± 1.6 m/s

Q: And the speed of sound (308.15 K, x1 = 0.5559)?
A: 1629.3 ± 1.6 m/s

Q: What about the speed of sound (308.15 K, x1 = 0.6831) of the same compound?
A: 1670.8 ± 1.6 m/s

Q: And the speed of sound (308.15 K, x1 = 0.8282)?
A: 1708.4 ± 1.7 m/s

Q: And the speed of sound (308.15 K, x1 = 0.9042)?
A: 1725.2 ± 1.7 m/s

Q: And the speed of sound (308.15 K, x1 = 1)?
A: 1743.7 ± 1.7 m/s

Q: And the mass density (308.15 K, x1 = 0.058)?
A: 1050.32 ± 0.28 kg/m3

Q: What about the mass density (308.15 K, x1 = 0.1206) of the same compound?
A: 1057.56 ± 0.28 kg/m3

Q: What about the mass density (308.15 K, x1 = 0.1878) of the same compound?
A: 1060.77 ± 0.28 kg/m3

Q: And the mass density (308.15 K, x1 = 0.2632)?
A: 1062.35 ± 0.28 kg/m3

Q: What about the mass density (308.15 K, x1 = 0.3498) of the same compound?
A: 1063.27 ± 0.28 kg/m3

Q: What about the mass density (308.15 K, x1 = 0.4503) of the same compound?
A: 1064.1 ± 0.28 kg/m3

Q: And the mass density (308.15 K, x1 = 0.5559)?
A: 1064.39 ± 0.28 kg/m3

Q: And the mass density (308.15 K, x1 = 0.6831)?
A: 1064.74 ± 0.28 kg/m3

Q: What about the mass density (308.15 K, x1 = 0.8282) of the same compound?
A: 1064.75 ± 0.28 kg/m3

Q: What about the mass density (308.15 K, x1 = 0.9042) of the same compound?
A: 1064.74 ± 0.28 kg/m3

Q: And the mass density (308.15 K, x1 = 1)?
A: 1064.42 ± 0.28 kg/m3

Q: What about the speed of sound (313.15 K, x1 = 0.058) of the same compound?
A: 1202 ± 1.8 m/s

Q: And the speed of sound (313.15 K, x1 = 0.1206)?
A: 1306.4 ± 1.7 m/s

Q: What about the speed of sound (313.15 K, x1 = 0.1878) of the same compound?
A: 1389.4 ± 1.7 m/s

Q: What about the speed of sound (313.15 K, x1 = 0.2632) of the same compound?
A: 1464.2 ± 1.7 m/s

Q: And the speed of sound (313.15 K, x1 = 0.3498)?
A: 1523.3 ± 1.6 m/s

Q: And the speed of sound (313.15 K, x1 = 0.4503)?
A: 1574.8 ± 1.6 m/s

Q: What about the speed of sound (313.15 K, x1 = 0.5559) of the same compound?
A: 1616.9 ± 1.6 m/s

Q: What about the speed of sound (313.15 K, x1 = 0.6831) of the same compound?
A: 1658.6 ± 1.6 m/s

Q: What about the speed of sound (313.15 K, x1 = 0.8282) of the same compound?
A: 1696.4 ± 1.7 m/s

Q: And the speed of sound (313.15 K, x1 = 0.9042)?
A: 1713.4 ± 1.7 m/s

Q: And the speed of sound (313.15 K, x1 = 1)?
A: 1732.1 ± 1.7 m/s

Q: And the mass density (313.15 K, x1 = 0.058)?
A: 1045.44 ± 0.29 kg/m3

Q: What about the mass density (313.15 K, x1 = 0.1206) of the same compound?
A: 1053.12 ± 0.28 kg/m3

Q: And the mass density (313.15 K, x1 = 0.1878)?
A: 1056.64 ± 0.28 kg/m3

Q: What about the mass density (313.15 K, x1 = 0.2632) of the same compound?
A: 1058.51 ± 0.28 kg/m3

Q: What about the mass density (313.15 K, x1 = 0.3498) of the same compound?
A: 1059.63 ± 0.28 kg/m3

Q: What about the mass density (313.15 K, x1 = 0.4503) of the same compound?
A: 1060.67 ± 0.28 kg/m3

Q: What about the mass density (313.15 K, x1 = 0.5559) of the same compound?
A: 1061.21 ± 0.28 kg/m3

Q: And the mass density (313.15 K, x1 = 0.6831)?
A: 1061.59 ± 0.28 kg/m3

Q: And the mass density (313.15 K, x1 = 0.8282)?
A: 1061.71 ± 0.28 kg/m3

Q: What about the mass density (313.15 K, x1 = 0.9042) of the same compound?
A: 1061.75 ± 0.28 kg/m3

Q: What about the mass density (313.15 K, x1 = 1) of the same compound?
A: 1061.47 ± 0.28 kg/m3
